In the experiment the test system is NCI-H716 cells. Kind of experiment: Release of active GLP-1 by NCI-H716 cells. The experiment is classed as cell-based, human. The note with it: alpha-lactose dose equivalent to that contained in the wheys, 2 h incubation, active GLP-1 only.

Procedure: Cells were grown in suspension at 37° C., 5% CO2. The culture medium consisted of RPMI 1640 supplemented with 10% FBS, 2 mM L-glutamine, 100 IU/ml penicillin and 100 μg/ml streptomycin. […] Cells were, therefore, seeded in dishes coated with […] ® (Becton Dickinson, Bedford, Mass., USA) two days before experiments.
Two days before experiments, 1×10^6 cells were seeded in 12 well culture plates coated with […] ®. On the day of the experiment, the supernatant was replaced by Krebs-Ringer Bicarbonate Buffer (KRB) containing 0.2% wt/vol BSA with or without CGMP. Cells were incubated for 2 h at 37° C. Supernatants were collected with the addition of 50 μg/ml PMSF and frozen at −80° C. for subsequent analysis by radioimmunoassay (RIA) of GLP-1. Cells were scraped with a rubber policeman and homogenization buffer [1 N HCl containing 5% (v/v) HCOOH, 1% (v/v) trifluoroacetic acid (TFA), and 1% (v/v) NaCl] and sonicated for 15 s. […] The intraassay coefficient of variance was 2.28%.
Here, a kit was used that only measures the active form of GLP-1, i.e., GLP-1 (7-37) or GLP-1 (7-36 amide), but not the degraded form, GLP-1 (9-36 amide), as was included in the data for FIGS. 1-3.

As to `OC[C@H]1O[C@@H](O[C@H]2[C@H](O)[C@@H](O)[C@@H](O)O[C@@H]2CO)[C@H](O)[C@@H](O)[C@H]1O` [alpha-lactose], the “GLP-1 secretion compared to the control” value came out at 144±32%.

For the origin of these results see patent US8710003B2, “Treatment of diabetes with milk protein hydrolysate” (Nestec S.A., priority 1999, dated 2014).
